Our source for the IC50 values is patent US20240010658A1, “ABHD6 ANTAGONIST” (ONO PHARMACEUTICAL CO., LTD., priority 2021, published 2024).

Assay [1] has as its target recombinant human ABHD6 (33-337) (Homo sapiens (Human), UniProt Q9BV23). The assay is described as follows: Evaluation of ABHD6 enzyme inhibitory activity (arachidonic acid production from 1-arachidonoyl glycerol, RapidFire-MS). It counts as biochemical. To be noted: inhibition of arachidonic acid production, 10 μmol/L 1-arachidonoyl glycerol, 1 hour, room temperature. The procedure:
The recombinant human ABHD6 (33-337) was a GST-tagged ABHD6, and one which was expressed in E. coli, then purified with a Glutathione-Sepharose 4B resin, and then concentrated was used. The enzyme reaction was carried out at room temperature using a 384-well microplate made of polypropylene, and wells to which no enzyme was added were designated as a blank group.
One hour after the start of the enzyme reaction, methanol containing, as an internal standard substance, arachidonic acid-d8 (Cayman Chemical) and 1% formic acid was added to stop enzymatic reaction. The upper part of the enzyme reaction plate was sealed with aluminum, and centrifugation was performed at 560 g for 5 minutes at room temperature. Then, arachidonic acid as an enzyme reaction product and arachidonic acid-ds as the internal standard substance were quantified with RapidFire (registered trademark)-Mass Spectrometry system.

The target of a further assay is human ABHD6 (Homo sapiens (Human), UniProt Q9BV23). Briefly: Measurement of binding affinity for human ABHD6 (BRET, HEK293 cells expressing NanoLuc-human ABHD6 fusion protein). To be noted: BRET competition with fluorescent probe molecule 100 nmol/L in HEK293 cells expressing NanoLuc-human ABHD6. Here is the method: The binding affinity of the test compound for human ABHD6 was measured using bioluminescence resonance energy transfer (hereinafter, abbreviated as BRET) as an index. The bioluminescence resonance energy transfer is induced by the proximity of a probe molecule and a NanoLuc-human ABHD6 fusion protein, which is caused by allowing a fluorescent probe molecule and a test compound to act in a competitive manner using HEK293 cells forcibly expressing the NanoLuc-human ABHD6 fusion protein.
The test compound and the compound described in Example 2 as a control substance were each dissolved in dimethyl sulfoxide (DMSO) to prepare a 10 mmol/L solution. The prepared 10 mmol/L solution was thawed at the time of use, serially diluted with DMSO, and subjected to an experiment.
HEK293 cells expressing a NanoLuc-human ABHD6 fusion protein were statically cultured at 37° C. in the presence of 5% CO2 using inactivated (56° C., 30 min) 9.8 vol % non-dialyzed-FBS (containing 0.5 vol % GENETICIN and 1% penicillin-streptomycin). The subculture was performed by the following method.
The culture medium was removed, and the cells were washed once with phosphate buffered saline without Ca^2+ and Mg^2+. An appropriate amount of trypsin-EDTA was added, and the cells were incubated at room temperature. After the cells were detached, a culture medium in a volume 10-fold the volume of trypsin-EDTA (0.05%) was added to stop an enzyme reaction. The cells were collected in a centrifuge tube, and centrifuged at room temperature for 3 minutes at 120 g, and the supernatant was removed. The cells were suspended in an appropriate amount of culture medium and seeded in a culture flask.
HEK293 cells expressing a NanoLuc-human ABHD6 fusion protein were prepared, and then cryopreserved so as to be 5.0×10^6 cells/mL/vial in CELLBANKER2, and the cells were subjected to an experiment. HBSS (+) containing 20 mmol/L HEPES (pH 7.3) and 0.1% BSA was prepared and used as an assay buffer. The cells were thawed and suspended in the assay buffer to prepare a cell suspension of 2×10^5 cells/mL. […] The plate was allowed to stand at 37° C. for 30 minutes in the presence of 5% CO2. Then, a probe molecule (10 mmol/L in DMSO) having a fluorophore was diluted with the assay buffer so as to have a final concentration of 100 nmol/L, and added to the assay plate in an amount of 15 μL each. Further, this was allowed to stand at 37° C. for 30 minutes in the presence of 5% CO2. Then, a Nano-Glo (registered trademark) Vivazine (trademark) substrate (Promega Corporation) was diluted with the assay buffer according to the method described in the protocol, and added to the assay plate in an amount of 10 μL each, and this was allowed to stand at room temperature for 1 hour. Thereafter, the luminescence and fluorescence intensity were measured using a GloMax (registered trademark) discover system. The ratio between the emission intensity through the 450 nm bandpass filter and the fluorescence intensity through the 600 nm longpass filter was defined as the measured value of each sample. The measured value of the group containing the control substance at a final concentration of 30 μmol/L was defined as 100% inhibition. The measured value of the group not containing the compound was defined as 0% inhibition. The IC50 value of the test compound was determined from the measured value at each test compound concentration.
A general note: BRET reads energy transfer from a luciferase to a nearby fluorophore.

Each structure is given as a SMILES string.

Sequence of recombinant human ABHD6 (33-337) (Q9BV23 33-337): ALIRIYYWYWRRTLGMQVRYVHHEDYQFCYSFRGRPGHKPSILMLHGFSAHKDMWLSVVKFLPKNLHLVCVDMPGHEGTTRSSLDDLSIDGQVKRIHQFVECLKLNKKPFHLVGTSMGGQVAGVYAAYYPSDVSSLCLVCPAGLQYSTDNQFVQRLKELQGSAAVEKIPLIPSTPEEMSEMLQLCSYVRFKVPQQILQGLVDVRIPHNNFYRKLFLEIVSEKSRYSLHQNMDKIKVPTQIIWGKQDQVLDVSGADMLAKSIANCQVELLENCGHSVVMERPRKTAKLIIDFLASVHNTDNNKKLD
Sequence of human ABHD6 (Q9BV23 whole entry, the tested form may be a part): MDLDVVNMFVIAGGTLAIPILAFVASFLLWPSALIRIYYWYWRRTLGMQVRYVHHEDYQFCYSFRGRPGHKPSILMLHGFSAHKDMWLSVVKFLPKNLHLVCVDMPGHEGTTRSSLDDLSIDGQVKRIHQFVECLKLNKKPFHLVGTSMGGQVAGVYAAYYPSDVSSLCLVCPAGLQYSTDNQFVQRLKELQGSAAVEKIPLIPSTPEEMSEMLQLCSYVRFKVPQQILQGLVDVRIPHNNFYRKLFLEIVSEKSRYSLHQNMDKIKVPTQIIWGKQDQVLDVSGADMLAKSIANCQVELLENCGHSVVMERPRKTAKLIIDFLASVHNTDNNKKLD

A word on the IC50: it is the concentration at which inhibition is half-maximal. Consider `O=C(c1cc2c(s1)CCOC2)N1C[C@@H]2CC[C@@H](Nc3ccc(Br)nn3)[C@@H]2C1` [Example 2-1, [(3aS,4R,6aR)-4-[(6-Bromo-3-pyridazinyl)amino]hexahydrocyclopenta[c]pyrrol-2(1H)-yl](6,7-dihydro-4H-thieno[3,2-c]pyran-2-yl)methanone], for which the results for the IC50 (in assay [1]; on human ABHD6) were 1 nM and 3 nM, respectively.
